From patent publication US11666071B2, “Compound salt of N,N-dimethylglycine and an organic acid and composition and use thereof” (GUANGZHOU INSIGHTER BIOTECHNOLOGY CO., LTD., priority 2017, dated 2023)
Structures can show the parent of a compound that is named as a salt. Marks after values point to notes of the source that are not given here.

Tests used:
[1] = tested on: Duroc×Landrace×Large White weaned pigs; test: Copper salt of N,N-dimethylglycine and fumaric acid on weaned pigs; format: in vivo, pig
Procedure: The […] utensils were disinfected before the experiment. The pigs were kept in pens in the same […] under the same breeding conditions during the experiment. […] The test was carried out for 15 days. […] The experiment data were analyzed with SPSS18 software.

[2] = High-humidity stability test (hygroscopic weight gain); format: physicochemical; conditions: 25° C.; for hygroscopicity / status of sample: RH 95%; for hygroscopicity / status of sample / hygroscopic weight gain, Day 5 (%): day 5; for hygroscopic weight gain, Day 5 (%) / hygroscopic weight gain, Day 10 (%): RH 95%±1%
[3] = tested on: Duroc×Landrace×Large White weaned pigs; test: Zinc salt of N,N-dimethylglycine and fumaric acid in weaned-pig feed; format: in vivo; conditions: 15 days
Description: The pigsty and utensils were disinfected before the experiment. The pigs were kept in pens in the same pigsty under the same breeding conditions during the experiment. […] The groups included a control group, a comparative example and experiment groups 1-6. The control group was provided with only the basic diets, the comparative example was provided with 2500 ppm of zinc oxide, and the experiment groups 1-6 were respectively provided with the basic diets together with the hybrid pellet feed additive product 7 provided by the present invention in different concentrations, as shown in Table 9. […] The experiment was carried out for 15 days. […] The experiment data were analyzed with SPSS18 software.

Compound	hygroscopicity / status of sample [2]	hygroscopic weight gain, Day 5 (%) [2]	hygroscopic weight gain, Day 10 (%) [2]	further results
O.O.O.O.O.O=S(=O)([O-])[O-].[Cu+2] [Copper sulfate pentahydrate, reference compound]				ADFI ([1]; dose 250 ppm, 15 days): 94.67 ± 1.33 kg; ADG ([1]; dose 250 ppm, 15 days): 46.38 ± 1.01 kg; FCR ([1]; dose 250 ppm, 15 days): 2.042 ± 0.021^b
CN(C)CC(=O)O.Cl [Sample 1, N,N-dimethylglycine hydrochloride, reference compound]	very high hygroscopicity	79.86 ± 0.94%	80.69 ± 0.59%	
CN(C)CC(=O)[O-].[Na+] [Sample 2, Sodium N,N-dimethylglycinate, reference compound]	very high hygroscopicity	49.09 ± 1.14%	52.44 ± 0.48%	
CN(C)CC(=O)O [Sample 6, Calcium salt of N,N-dimethylglycine and sulfuric acid]	water-like status	61.72 ± 0.41%	60.58 ± 0.21%	
CN(C)CC(=O)[O-].O=C([O-])c1ccccc1.[Cu+2] [Sample 11]		2.41 ± 0.07%	2.81 ± 0.10%	
[O]=[Zn] [Zinc oxide, reference compound]				FCR ([3]; dose 2500 ppm): 1.808 ± 0.018
Calcium N,N-dimethylglycinate [Sample 3, reference compound]	very high hygroscopicity	38.40 ± 0.22%	41.83 ± 0.35%	
Calcium salt of N,N-dimethylglycine and fumaric acid [Sample 8]		2.95 ± 0.22%	3.25 ± 0.12%	
Calcium salt of N,N-dimethylglycine and p-methylbenzenesulfonic acid [Sample 10]		2.84 ± 0.23%	3.01 ± 0.11%	
Calcium salt of N,N-dimethylglycine and tetradecanoic acid [Sample 9]		2.11 ± 0.04%	2.75 ± 0.32%	
Copper salt of N,N-dimethylglycine and fumaric acid [Sample 14]		2.56 ± 0.11%	2.81 ± 0.06%	effect on the average daily weight gain of weaned pigs ([1]; 30-100 ppm, 15 days): no significant effect; effect on the feed intake of weaned pigs ([1]; 30-100 ppm, 15 days): no significant effect; reduction of feed conversion ratio compared with the control group ([1]; dose 100 ppm): 8.61%; dose at which feed conversion ratio is significantly reduced ([1]; weaned pigs, 15 days): 30-100 ppm
Zinc salt of N,N-dimethylglycine and fumaric acid [Sample 13]		2.26 ± 0.09%	2.76 ± 0.23%	effect on the feed intake of weaned pigs ([3]; 55-520 ppm): no significant effect; dose at which reduction of feed conversion ratio is significant and equivalent to high-dose zinc oxide ([3]; weaned pigs): higher than 390 ppm; dose that significantly increases average daily weight gain to the level of 2500 ppm zinc oxide ([3]; weaned pigs): about 260 ppm
